Entries after “also recorded” stand apart in the source; their conditions may differ.

The subject of data set [1] is AtT20 cells expressing human CB1 (hCB1). Briefly: LDH release cytotoxicity assay. The data set is classed as cell-based. The note with it: 30 μM. On the procedure:
AtT20 cells expressing either human CB1 (hCB1) or CB2 (hCB2) receptors or wildtype (WT) were grown to confluence in T75 cm^2 flasks in Dulbecco's modified eagle medium containing 10% fetal bovine serum, 100 U penicillin/streptomycin, and 80 μg/mL hygromicyin (Sigma-Aldrich/Merck; Castle Hill, NSW, Australia). Cells were plated in 96-well-microplates at 30,000 cells per well and allowed to adhere overnight in 5% CO2. The following morning, cells were treated with either vehicle (0.1% DMSO; negative control), 30 μM Δ^9-THC, or 30 μM AMB-FUBINACA. At 1 or 6 h, the amount of lactate dehydrogenase in the cell media was tested, and compared with positive control (lysed cells) as per manufacturer's instructions (Dojindo Molecular Technologies, Inc.; Rockville, MD, USA), with readings performed on a Clariostar Plus plate reader (BMG Labtech, Mornington, VIC, Australia). Experiments were performed in triplicate. In order to measure any accumulating LDH, media was not changed after initial incubation. Data is represented as means ± S.E.M. A two-way ANOVA with was performed on the data at each time point, with Tukey's multiple comparison test (α = 0.05). A p < 0.05 was considered statistically significant.
(In general: Release of lactate dehydrogenase indicates damage to the cell membrane.)

Another data set has as its target HRH1 (Homo sapiens, UniProt P35367). Format: cell-based.
In a further data set the test system is CB1. Set-up: method as in PMID 31513380. To be noted: 10 μM; cited from earlier work.
A further data set has as its system 168 GPCRs. Nature of the data set: gpcrMAX panel 30 μM single-point β-arrestin screen (agonist and antagonist mode). The data set is classed as cell-based. To be noted: antagonist mode. The method, then: Activity, or a “hit,” was defined as >30% in agonist mode, >35% in antagonist mode, or >50% in the orphan screen (agonist mode). Where these criteria were met, signal-to-noise (S/N) and coefficient of variation (CoV) were also calculated, defined as: […]
Agonist mode Antagonist modeS/N Compound mean/Baseline mean+(Baseline SD×3) EC80 mean/Compound-(Compound SD× 3)CoV Baseline mean/Compound mean-(Compound SD× 3) Compound mean/EC80 mean-(EC80 SD × 3)
Hits were verified to have S/N>1 and a CoV <1. Thresholds and subsequent validation were guided by Eurofins. Descriptive data (means ± S.E.M) was generated in Graphpad Prism (version 9.2.0, San Diego, CA).

The target of a further data set is T1, GALR2 (Homo sapiens, UniProt O43603).
T1 construct: purchased Eurofins DiscoverX (PathHunter gpcrMAX)
T1 sequence (O43603 whole entry): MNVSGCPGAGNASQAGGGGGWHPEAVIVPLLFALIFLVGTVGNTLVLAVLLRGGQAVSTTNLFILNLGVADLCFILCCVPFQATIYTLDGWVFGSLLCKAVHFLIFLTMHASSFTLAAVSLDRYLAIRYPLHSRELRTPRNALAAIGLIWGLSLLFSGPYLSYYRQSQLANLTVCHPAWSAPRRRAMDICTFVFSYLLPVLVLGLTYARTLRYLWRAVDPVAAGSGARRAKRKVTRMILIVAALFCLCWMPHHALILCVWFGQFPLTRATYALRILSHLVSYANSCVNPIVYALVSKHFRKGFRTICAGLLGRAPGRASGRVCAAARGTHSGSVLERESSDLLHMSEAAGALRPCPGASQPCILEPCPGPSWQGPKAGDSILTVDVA
Briefly: PathHunter β-arrestin assay. Format: cell-based. To be noted: antagonist mode, up to 30 μM.

The target of another data set is T2, GLP2R (Homo sapiens, UniProt O95838).
T2 sequence (O95838 1-553): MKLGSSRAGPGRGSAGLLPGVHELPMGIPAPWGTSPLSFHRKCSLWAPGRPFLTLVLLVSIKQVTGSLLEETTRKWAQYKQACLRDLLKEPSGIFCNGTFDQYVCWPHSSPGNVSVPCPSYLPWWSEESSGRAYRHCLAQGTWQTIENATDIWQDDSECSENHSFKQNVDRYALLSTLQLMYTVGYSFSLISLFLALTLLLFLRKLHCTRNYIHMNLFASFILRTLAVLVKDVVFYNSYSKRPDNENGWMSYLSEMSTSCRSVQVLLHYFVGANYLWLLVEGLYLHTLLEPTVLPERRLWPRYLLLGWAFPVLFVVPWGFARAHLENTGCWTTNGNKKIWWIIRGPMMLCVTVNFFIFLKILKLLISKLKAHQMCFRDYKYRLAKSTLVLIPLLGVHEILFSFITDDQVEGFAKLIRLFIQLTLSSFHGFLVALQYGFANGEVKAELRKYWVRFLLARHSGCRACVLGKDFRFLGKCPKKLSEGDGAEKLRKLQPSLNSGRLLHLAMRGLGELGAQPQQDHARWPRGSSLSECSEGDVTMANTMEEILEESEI
Nature of the data set: PathHunter β-arrestin assay. To be noted: antagonist mode vs EC80 of control agonist, 10-point curve. The data set is classed as cell-based. In a few lines:
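Concentration-response testing covered 1.5–30 μM in 10 points. Where run as antagonist, the assay used EC80 agonist challenge. Plates were accepted at Z' >0.5.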

Another data set addresses CCR8 (Homo sapiens, UniProt P51685). Briefly: PathHunter β-arrestin assay. The data set is classed as cell-based. The note with it: antagonist mode vs EC80 of control agonist, 10-point curve.
In another data set the target is T3, CCR4 (Homo sapiens, UniProt P51679).
T3 sequence (P51679 1-360): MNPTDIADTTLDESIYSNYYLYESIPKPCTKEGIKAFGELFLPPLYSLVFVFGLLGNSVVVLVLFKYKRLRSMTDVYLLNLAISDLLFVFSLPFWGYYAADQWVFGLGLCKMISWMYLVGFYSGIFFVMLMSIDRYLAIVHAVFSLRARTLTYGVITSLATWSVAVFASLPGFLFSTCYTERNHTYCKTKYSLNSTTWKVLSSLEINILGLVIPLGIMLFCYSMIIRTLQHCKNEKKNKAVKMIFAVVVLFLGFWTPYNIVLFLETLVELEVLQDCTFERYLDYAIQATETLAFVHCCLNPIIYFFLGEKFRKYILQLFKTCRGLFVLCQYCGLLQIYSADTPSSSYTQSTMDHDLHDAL
Nature of the data set: PathHunter β-arrestin assay. The data set is classed as cell-based. The note with it: antagonist mode vs EC80 of control agonist, 10-point curve.

A further data set addresses T4, ADORA3 (Homo sapiens, UniProt P0DMS8).
T4 construct: host or cells: CHO
Nature of the data set: PathHunter β-arrestin assay. The data set is classed as cell-based. The note with it: antagonist mode vs EC80 of control agonist, 10-point curve.

For the next data set, the target named is MC5R (Homo sapiens, UniProt P33032). Briefly: PathHunter β-arrestin assay. The data set is classed as cell-based. To be noted: antagonist mode vs EC80 of control agonist, 10-point curve.
Sequence of MC5R (P33032 whole entry): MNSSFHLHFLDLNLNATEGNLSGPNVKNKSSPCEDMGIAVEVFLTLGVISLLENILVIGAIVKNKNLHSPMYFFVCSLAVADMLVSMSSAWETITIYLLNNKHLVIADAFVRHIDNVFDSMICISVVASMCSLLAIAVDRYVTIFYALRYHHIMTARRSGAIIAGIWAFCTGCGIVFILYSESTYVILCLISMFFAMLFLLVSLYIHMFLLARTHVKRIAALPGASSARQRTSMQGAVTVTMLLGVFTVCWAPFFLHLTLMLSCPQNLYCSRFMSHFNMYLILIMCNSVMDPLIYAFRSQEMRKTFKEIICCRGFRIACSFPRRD
For the next data set, the target named is CALCR-RAMP2 (Homo sapiens, UniProt O60895+P30988). Nature of the data set: PathHunter β-arrestin assay. The note with it: antagonist mode vs EC80 of control agonist, 10-point curve. The data set is classed as cell-based.
Sequence of CALCR-RAMP2 (P30988 25-474): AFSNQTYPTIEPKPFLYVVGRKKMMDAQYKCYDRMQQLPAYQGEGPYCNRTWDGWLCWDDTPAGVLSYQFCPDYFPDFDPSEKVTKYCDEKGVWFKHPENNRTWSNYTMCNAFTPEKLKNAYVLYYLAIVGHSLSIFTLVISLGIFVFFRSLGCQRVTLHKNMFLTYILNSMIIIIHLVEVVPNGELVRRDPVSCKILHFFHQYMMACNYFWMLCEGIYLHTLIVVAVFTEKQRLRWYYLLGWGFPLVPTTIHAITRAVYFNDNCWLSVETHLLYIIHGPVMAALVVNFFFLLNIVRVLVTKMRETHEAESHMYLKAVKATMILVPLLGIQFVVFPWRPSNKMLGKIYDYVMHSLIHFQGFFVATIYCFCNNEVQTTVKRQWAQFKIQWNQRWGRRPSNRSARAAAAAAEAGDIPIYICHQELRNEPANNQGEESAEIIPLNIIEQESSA
Sequence of CALCR-RAMP2 (O60895 43-175 partner): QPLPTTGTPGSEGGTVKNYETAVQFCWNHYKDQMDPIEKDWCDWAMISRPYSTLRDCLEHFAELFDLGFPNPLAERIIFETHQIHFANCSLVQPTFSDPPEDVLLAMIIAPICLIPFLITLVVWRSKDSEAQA
The target of the next data set is HRH2 (Homo sapiens, UniProt P25021). Nature of the data set: PathHunter β-arrestin assay. The data set is classed as cell-based. The note with it: antagonist mode vs EC80 of control agonist, 10-point curve.
Sequence of HRH2 (P25021 whole entry): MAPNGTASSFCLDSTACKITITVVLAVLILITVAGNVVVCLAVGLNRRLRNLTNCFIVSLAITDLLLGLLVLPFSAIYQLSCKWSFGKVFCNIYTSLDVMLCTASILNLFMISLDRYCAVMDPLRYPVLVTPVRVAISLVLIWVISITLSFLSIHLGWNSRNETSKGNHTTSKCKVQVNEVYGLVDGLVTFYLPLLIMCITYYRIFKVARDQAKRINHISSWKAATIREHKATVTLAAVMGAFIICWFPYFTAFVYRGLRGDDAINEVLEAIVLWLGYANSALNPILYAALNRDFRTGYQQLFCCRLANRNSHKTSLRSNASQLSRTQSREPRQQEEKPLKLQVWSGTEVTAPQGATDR
In a further data set the target is DRD2L (Homo sapiens, UniProt P14416). Briefly: PathHunter β-arrestin assay. Format: cell-based. To be noted: antagonist mode, up to 30 μM.
Sequence of DRD2L (P14416 whole entry): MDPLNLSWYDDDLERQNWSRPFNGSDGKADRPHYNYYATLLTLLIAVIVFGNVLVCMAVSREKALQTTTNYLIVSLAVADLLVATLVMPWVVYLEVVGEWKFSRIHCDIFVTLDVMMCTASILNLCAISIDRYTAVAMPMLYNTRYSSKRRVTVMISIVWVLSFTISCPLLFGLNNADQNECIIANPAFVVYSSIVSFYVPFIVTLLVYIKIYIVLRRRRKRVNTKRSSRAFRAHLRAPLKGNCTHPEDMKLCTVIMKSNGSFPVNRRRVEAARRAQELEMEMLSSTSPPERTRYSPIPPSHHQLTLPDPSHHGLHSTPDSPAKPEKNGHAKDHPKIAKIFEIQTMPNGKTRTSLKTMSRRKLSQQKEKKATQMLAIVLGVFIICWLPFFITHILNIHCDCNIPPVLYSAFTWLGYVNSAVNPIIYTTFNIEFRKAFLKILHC
A further data set deals with DRD5 (Homo sapiens, UniProt P21918). Briefly: PathHunter β-arrestin assay. Format: cell-based. The note with it: antagonist mode vs EC80 of control agonist, 10-point curve.
Sequence of DRD5 (P21918 whole entry): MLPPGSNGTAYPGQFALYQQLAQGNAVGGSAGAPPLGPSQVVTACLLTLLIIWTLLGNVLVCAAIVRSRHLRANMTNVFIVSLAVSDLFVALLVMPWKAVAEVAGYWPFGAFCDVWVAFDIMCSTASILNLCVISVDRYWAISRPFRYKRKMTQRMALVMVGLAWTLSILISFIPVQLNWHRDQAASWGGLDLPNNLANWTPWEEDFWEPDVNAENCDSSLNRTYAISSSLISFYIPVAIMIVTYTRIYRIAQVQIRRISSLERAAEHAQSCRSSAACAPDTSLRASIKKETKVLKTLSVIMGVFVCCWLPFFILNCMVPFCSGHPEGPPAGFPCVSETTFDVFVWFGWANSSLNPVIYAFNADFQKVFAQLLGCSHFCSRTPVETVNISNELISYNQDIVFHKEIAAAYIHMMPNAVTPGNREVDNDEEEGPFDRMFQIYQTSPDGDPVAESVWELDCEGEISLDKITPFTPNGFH
The target of another data set is MC4R (Homo sapiens, UniProt P32245). Briefly: PathHunter β-arrestin assay. Format: cell-based. The note with it: antagonist mode vs EC80 of control agonist, 10-point curve.
Sequence of MC4R (P32245 whole entry): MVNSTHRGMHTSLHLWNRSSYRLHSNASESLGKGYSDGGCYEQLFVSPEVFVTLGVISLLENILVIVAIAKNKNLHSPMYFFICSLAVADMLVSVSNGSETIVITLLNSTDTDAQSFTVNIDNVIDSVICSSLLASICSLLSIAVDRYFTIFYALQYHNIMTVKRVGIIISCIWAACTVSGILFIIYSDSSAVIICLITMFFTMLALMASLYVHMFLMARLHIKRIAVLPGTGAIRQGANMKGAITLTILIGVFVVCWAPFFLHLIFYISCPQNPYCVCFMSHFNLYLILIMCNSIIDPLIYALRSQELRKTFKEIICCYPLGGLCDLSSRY

Sequence of HRH1 (P35367 whole entry): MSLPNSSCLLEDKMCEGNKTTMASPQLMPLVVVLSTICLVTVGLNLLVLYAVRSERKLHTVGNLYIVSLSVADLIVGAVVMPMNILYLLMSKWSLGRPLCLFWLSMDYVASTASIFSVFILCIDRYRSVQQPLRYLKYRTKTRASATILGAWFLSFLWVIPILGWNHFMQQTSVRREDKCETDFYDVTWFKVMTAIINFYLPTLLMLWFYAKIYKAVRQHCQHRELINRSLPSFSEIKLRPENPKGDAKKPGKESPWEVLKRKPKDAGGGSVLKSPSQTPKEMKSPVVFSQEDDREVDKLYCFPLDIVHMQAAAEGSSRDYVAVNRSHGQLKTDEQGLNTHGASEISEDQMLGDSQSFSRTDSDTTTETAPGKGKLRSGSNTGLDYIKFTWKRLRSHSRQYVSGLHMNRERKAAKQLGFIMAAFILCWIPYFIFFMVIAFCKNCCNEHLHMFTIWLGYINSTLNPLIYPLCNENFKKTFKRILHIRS
T4 sequence (P0DMS8 whole entry): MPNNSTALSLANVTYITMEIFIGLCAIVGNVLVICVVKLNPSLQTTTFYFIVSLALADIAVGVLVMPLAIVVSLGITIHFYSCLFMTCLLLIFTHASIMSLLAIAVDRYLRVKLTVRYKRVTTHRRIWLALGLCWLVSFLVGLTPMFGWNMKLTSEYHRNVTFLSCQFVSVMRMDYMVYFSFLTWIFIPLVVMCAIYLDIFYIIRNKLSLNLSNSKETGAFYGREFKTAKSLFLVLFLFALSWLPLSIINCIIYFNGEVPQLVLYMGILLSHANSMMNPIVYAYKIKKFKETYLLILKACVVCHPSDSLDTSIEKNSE
Sequence of CCR8 (P51685 whole entry): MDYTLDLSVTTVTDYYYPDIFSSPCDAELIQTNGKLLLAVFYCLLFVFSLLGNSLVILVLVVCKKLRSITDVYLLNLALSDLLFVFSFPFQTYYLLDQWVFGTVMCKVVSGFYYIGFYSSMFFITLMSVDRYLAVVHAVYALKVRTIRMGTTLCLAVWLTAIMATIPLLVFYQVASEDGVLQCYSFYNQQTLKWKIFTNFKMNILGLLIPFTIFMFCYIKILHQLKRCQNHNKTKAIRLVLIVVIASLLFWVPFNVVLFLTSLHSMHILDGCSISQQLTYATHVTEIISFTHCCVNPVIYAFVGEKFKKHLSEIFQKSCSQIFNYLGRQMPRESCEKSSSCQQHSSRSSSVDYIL

In the case of `COC(=O)[C@@H](NC(=O)c1nn(Cc2ccc(F)cc2)c2ccccc12)C(C)C` [AMB-FUBINACA], the “LDH in cell media, normalized to total LDH” value in data set [1] (1 h) amounted to 17.09 ± 7.03%. For the same molecule, the “LDH increase compared with vehicle” value in data set [1] (6 h) is reported as “not observed”. The IC50 (usually the midpoint of a concentration-inhibition curve) against HRH1 is 1.42 µM; at GLP2R, 13.1 µM; on CCR8, 7.99 µM; on CCR4, 11.5 µM; at ADORA3, 14.6 µM; on MC5R it was 14.1 µM. For the same molecule, the IC50 at CALCR-RAMP2 is 10.8 µM; on HRH2, 13.1 µM; at DRD5 it was 10.7 µM; at MC4R, 5.85 µM. The “inhibitory activity at lower concentrations” value at HRH1 (antagonist mode, 1 μM) was “appreciable inhibitory activity”. Besides, in the data set with CB1, the “time to peak β-arrestin-2 recruitment” value was less than 10 min. In the data set with 168 GPCRs, the “mean inhibition 30 μM, targets with >5-fold difference in S/N and CoV (n = 36)” value was found to be 97.00 ± 2.54%. Also, the “mean inhibition of targets inhibited above 35% threshold” value with 168 GPCRs is 81.16%. Besides, in the data set with 168 GPCRs, the “number of off-targets inhibited (>35%)” value was “inhibited the greatest number of targets”. Also, the “inhibitory activity in concentration-response” value was “did not produce any clear activity” on GALR2 and “Activity was only observed at the highest concentration (30 μM); also recorded: only inhibited at the highest 30 μM concentration” on DRD2L.

Source of the values: publication PMC9798004 (Frontiers in Psychiatry, 2022).
